Key:
[1] = system: human panelists, savory taste; assay: Savory taste test with trained human panel (difference from reference); format: in vivo; conditions: for Taste Data: cpd concentration as strong as 12 mM MSG: compound alone, without MSG; for Taste Data: cpd concentration at which 12 mM MSG + cpd is as strong as 12 mM MSG + 100 μM IMP: with 12 mM MSG, reference 12 mM MSG + 100 μM IMP
Description: General Panelist Selection: Basic screening of sensory taste testers: Potential panelists were tested for their abilities to rank and rate intensities of solutions representing the five basic tastes. Panelists ranked and rated intensity of five different concentrations of each of the five following compounds: sucrose (sweet), sodium chloride (salty), citric acid (sour), caffeine (bitter), and monosodium glutamate (savory). In order to be selected for participation in testing, panelists needed to correctly rank and rate samples for intensity, with a reasonable number of errors.
Preliminary Taste Tests: The panelists selected in the above procedure were deemed qualified for performing Preliminary Taste Testing procedures. The preliminary taste tests are used to evaluate new compounds for intensity of basic tastes and off-tastes. A small group of panelists (n=5) taste approximately 5 concentrations of the compound (range typically between 1-100 μM, in half-log cycles, e.g., 1, 3, 10, 30, and 100 μM) in water and in a solution of 12 mM MSG to evaluate enhancement. Panelists rate the five basic tastes (sweet, salty, sour, bitter, and savory) as well as off-tastes (such as chemical, metallic, sulfur) on a labeled magnitude scale. Samples are served in 10 mL portions at room temperature. The purpose of the test is to determine the highest concentration at which there is no objectionable off-taste, and determine if obvious savory taste or enhancement of savory taste exists at any of the concentrations tested.
Trained Panelist Selection: A trained expert panel was used to further evaluate compounds that had been tested with the preliminary taste test.
Panelists for the trained panel were selected from the larger group of qualifying taste panelists. Panelists were further trained on savory taste by ranking and rating experiments using MSG and IMP combinations. Panelists completed a series of ranking, rating, and difference from reference tests with savory solutions. In ranking and rating experiments, panelists evaluated easy MSG concentrations (0, 6, 18, 36 mM) and more difficult MSG concentrations (3, 6, 12, 18 mM MSG) in water.
Compound testing with Trained Panel: Compounds tested by the trained panel were evaluated in difference from reference experiments. […] Test samples were solutions with varying amounts of MSG, IMP, and the compound. Typically, each session compares the reference sample to numerous test samples. […] Compounds were tested against the reference in samples with and without 12 mM MSG. All samples were presented in 10 ml volumes at room temperature. Two sessions were completed for each compound tested to evaluate panel reproducibility.

[2] = target: T1, hT1R1/hT1R3 umami receptor expressed in an HEK293 cell line (Homo sapiens, UniProt Q7RTX0+Q7RTX1); assay: Umami taste enhancement assay (EC50 ratio vs. MSG); format: cell-based
T1 construct: expressed in transfected cells; host or cells: HEK293 cell line derivative, clone 1-17, expression induced with mifepristone
T1 sequence (Q7RTX1 21-841): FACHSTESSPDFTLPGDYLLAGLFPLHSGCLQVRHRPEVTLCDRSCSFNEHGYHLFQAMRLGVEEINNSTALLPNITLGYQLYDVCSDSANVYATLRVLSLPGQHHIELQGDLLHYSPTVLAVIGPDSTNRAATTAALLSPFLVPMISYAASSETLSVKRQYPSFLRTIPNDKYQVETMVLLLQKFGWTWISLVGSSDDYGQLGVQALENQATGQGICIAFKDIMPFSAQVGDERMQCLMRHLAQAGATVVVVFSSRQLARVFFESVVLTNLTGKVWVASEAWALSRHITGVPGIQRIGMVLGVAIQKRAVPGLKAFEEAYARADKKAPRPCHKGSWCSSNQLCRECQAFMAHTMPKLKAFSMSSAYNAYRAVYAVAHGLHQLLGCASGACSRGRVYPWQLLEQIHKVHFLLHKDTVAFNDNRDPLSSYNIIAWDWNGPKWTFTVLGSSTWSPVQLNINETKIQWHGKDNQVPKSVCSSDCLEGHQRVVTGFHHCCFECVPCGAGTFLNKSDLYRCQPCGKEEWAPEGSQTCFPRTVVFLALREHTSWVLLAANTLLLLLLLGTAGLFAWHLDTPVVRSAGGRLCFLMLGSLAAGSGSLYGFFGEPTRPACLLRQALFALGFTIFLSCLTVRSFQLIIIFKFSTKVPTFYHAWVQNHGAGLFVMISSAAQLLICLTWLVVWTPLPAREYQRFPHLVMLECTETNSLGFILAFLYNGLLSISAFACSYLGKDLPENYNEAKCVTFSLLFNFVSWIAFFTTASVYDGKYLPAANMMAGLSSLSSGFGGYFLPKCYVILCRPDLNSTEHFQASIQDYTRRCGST
T1 sequence (Q7RTX0 21-852): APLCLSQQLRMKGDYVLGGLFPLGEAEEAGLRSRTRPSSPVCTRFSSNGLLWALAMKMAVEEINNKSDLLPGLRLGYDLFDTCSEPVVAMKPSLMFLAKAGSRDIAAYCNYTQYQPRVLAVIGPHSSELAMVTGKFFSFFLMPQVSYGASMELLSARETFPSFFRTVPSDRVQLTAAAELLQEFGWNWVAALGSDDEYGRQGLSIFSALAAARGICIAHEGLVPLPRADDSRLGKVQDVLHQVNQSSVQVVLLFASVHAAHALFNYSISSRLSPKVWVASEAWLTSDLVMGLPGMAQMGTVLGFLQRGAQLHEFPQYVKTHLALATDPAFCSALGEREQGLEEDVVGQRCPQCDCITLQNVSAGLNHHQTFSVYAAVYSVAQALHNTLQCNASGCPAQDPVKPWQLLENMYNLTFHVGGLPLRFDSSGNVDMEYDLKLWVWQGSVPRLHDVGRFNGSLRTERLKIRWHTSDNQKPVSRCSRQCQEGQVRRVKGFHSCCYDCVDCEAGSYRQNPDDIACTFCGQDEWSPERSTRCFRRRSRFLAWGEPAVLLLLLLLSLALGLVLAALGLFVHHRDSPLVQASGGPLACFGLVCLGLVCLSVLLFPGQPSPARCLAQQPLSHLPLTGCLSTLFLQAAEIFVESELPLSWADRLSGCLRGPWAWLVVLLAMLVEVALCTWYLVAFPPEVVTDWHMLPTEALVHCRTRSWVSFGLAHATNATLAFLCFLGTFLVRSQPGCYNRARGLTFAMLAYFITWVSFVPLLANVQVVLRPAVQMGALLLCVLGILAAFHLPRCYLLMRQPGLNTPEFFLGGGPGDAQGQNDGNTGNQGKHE
Text: In umami taste enhancement activity assay experiments, which produce an “EC50 ratio” measurement of how effectively the amide compounds of the invention enhance the savory flavorant (typically MSG) already in a test solution. A series of measurements of the dose response is run in solutions comprising MSG alone, then a second dose response is run with MSG in combination with predetermined amounts of a candidate compound of Formula (I) at the same time.
In this assay, increasing concentrations of monosodium glutamate (ranging from 12 μM to 81 mM) were presented, in duplicates, in the presence or absence of a fixed concentration of the test compound. Typical compound concentrations tested were 30 μM, 10 μM, 3 μM, 1 μM, 0.3 μM, 0.1 μM and 0.03 μM. The relative efficacy of compounds of […] at enhancing the receptor was determined by calculating the magnitude of a shift in the EC50 for monosodium glutamate. Enhancement was defined as a ratio (EC50R) corresponding to the EC50 of monosodium glutamate, determined in the absence of the test compound, divided by the EC50 of monosodium glutamate, determined in the presence of the test compound.
Stated alternatively, “EC50 ratio” as compared to MSG is calculated based on the following definitions:
EC50 Ratio vs. MSG=EC50 (MSG)/EC50 (MSG+[Compound]) wherein “[compound]” refers to the concentration of the compound of Formula (I) used to elicit (or enhance or potentiate) the MSG dose response.
It should be noted that the EC50 ratio measured can depend somewhat on the concentration of the compound itself. Preferred savory enhancers would have a high EC50 Ratio vs. MSG at a low concentration of the compound used.

[3] = system: trained tasters, savory, salt, spice flavors; assay: Italian sausage rank-rating intensity taste test; format: in vivo, human; conditions: scale 0-10, ten tasters
Text: Three different dry Italian sausage seasoning mixes were formulated by dry blending the ingredients shown in the Tables below, then rehydrated during the formulation of corresponding sausages. One control sample of seasoning mix (Tables 36-1a, b) contained no MSG, and no compounds of the invention. A second sample of seasoning mix and sausage contained added MSG (Tables 36-2a, b). A third sample of Seasoning mix and corresponding sausage also contained added savory flavor concentrate compositions (prepared as per Example 34) containing (0.1% wt/wt) of compounds 1 and 24 ([…]).
Ten trained tasters were trained to identify the relative intensities of the following taste attributes: salty, savory/meaty, umami, brothiness, bitter, linger and off flavors. A rank-rating intensity test was used to evaluate the Italian Sausagesamples. A rank rating is a difference test to determine whether a sensory difference is perceived between various samples. Samples that were evaluated were the Italian Sausage no MSG, Italian sausage with MSG, Italian sausage with compounds 1 and 24 but no MSG. The panelists evaluated 3 randomized, blind coded samples of one ounce of Italian sausage served at 140° F., and ranked the intensity of savory, salt, spice flavors on a scale of 0-10: 0 being the least intense and 10 being the most intenese, and the scores were averaged for individual category.

SMILES	Taste Data: cpd concentration at which 12 mM MSG + cpd is as strong as 12 mM MSG + 100 μM IMP [1]	melting point [°C]	also measured
COc1ccc2c(c1)CCC2NC(=O)c1ccc(OC)c(C)c1 (racemic) [Example 22, (R/S)-4-Methoxy-N-(5-methoxy-2,3-dihydro-1H-inden-1-yl)-3-methylbenzamide]	12 mM MSG + 1 μM cpd as		Taste Data: cpd concentration as strong as 12 mM MSG [1]: 1 μM cpd as strong as
CC1CCCC(NC(=O)c2ccc3c(c2)OCO3)C1C (stereo not drawn) [Example 4]			EC50 ratio (enhancement of the effectiveness of monosodium glutamate) ([2]; compound present at 1 μM): 8.4
COC(=O)[C@@H](CC(C)C)NC(=O)c1ccc2c(c1)OCO2 [Example 5, (R)-methyl 2-(benzo[d][1,3]dioxole-6-carboxamido)-4-methylpentanoate]	12 mM MSG + 10 μM cpd as		EC50 ratio (enhancement of the effectiveness of monosodium glutamate) ([2]; compound present at 0.1 μM): 4.9
CCCC(CCC)NC(=O)c1ccc2c(c1)OC(C)O2 (stereo not drawn) [Example 9, N-(heptan-4-yl)-2-methylbenzo[d][1,3]dioxole-5-carboxamide]			EC50 ratio (enhancement of the effectiveness of monosodium glutamate) ([2]; compound present at 0.03 μM): 3.68
COC(=O)[C@@H](CC(C)C)NC(=O)c1ccc(OC)c(Cl)c1 [Example 16, (R)-methyl 2-(3-chloro-4-methoxybenzamido)-4-methylpentanoate]			EC50 ratio (enhancement of the effectiveness of monosodium glutamate) ([2]; compound present at 0.01 μM): 13.18
COC[C@@H](CC(C)C)NC(=O)c1ccc(C)c(C)c1 [Example 18, (R)—N-(1-methoxy-4-methylpentan-2-yl)-3,4-dimethylbenzamide]	12 mM MSG + 3 μM cpd as		
COC(=O)[C@@H](CC(C)C)NC(=O)c1cc(C)c(C)o1 [Example 19, (R)-methyl 2-(2,3-dimethylfuran-5-carboxamido)-4-methylpentanoate]	12 mM MSG + 10 μM cpd as		
COC(=O)[C@@H](CC(C)C)NC(=O)c1cc(OC)nc(OC)c1 [Example 20, (R)-methyl 2-(2,6-dimethoxyisonicotinamido)-4-methylpentanoate]	12 mM MSG + 3 μM cpd as		
COc1ccccc1CNC(=O)C(=O)NCCc1ccccn1 [Example 23, N-(2-Methoxy-benzyl)-N′-(2-pyridin-2-yl-ethyl)-oxalamide]		118 to 119	EC50 ratio (enhancement of the effectiveness of monosodium glutamate) ([2]; compound present at 0.3 μM): 18.85
Cc1ccc(CNC(=O)C(=O)NCCc2ccccn2)cc1 [Example 25, N-(4-methyl-benzyl)-N′-(2-pyridin-2-yl-ethyl)-oxalamide]		152 to 154	
COc1cc(C)ccc1CNC(=O)C(=O)NCCc1ccccn1 [Example 26, N-(2-methoxy-4-methylbenzyl)-N′-(2-(pyridin-2-yl)ethyl)oxalamide]	12 mM MSG + 1 μM cpd as	128 to 131	Taste Data: cpd concentration as strong as 12 mM MSG [1]: 1 μM cpd as strong as
Cc1ccc(CNC(=O)C(=O)NCCc2ccccn2)c(C)c1 [Example 27, N-(2,4-dimethylbenzyl)-N′-(2-(pyridin-2-yl)ethyl)oxalamide]		148 to 149	
CCOc1ccc(CNC(=O)C(=O)NCCc2ccccn2)c(OC)c1 [Example 28, N-(4-ethoxy-2-methoxybenzyl)-N′-(2-(pyridin-2-yl)ethyl)oxalamide]		117 to 118	
N[C@@H](CCC(=O)O)C(=O)[O-].[Na+] [MSG, monosodium glutamate]			Average score Salt [3]: 5.24; Average score Savory [3]: 6.13; Average score Spice [3]: 5.42

From patent US8318947B2, “Comestible compositions comprising high potency savory flavorants, and processes for producing them” (Senomyx, Inc., priority 2006, dated 2012)
